The term IC50 denotes the concentration that gives 50% inhibition. Broadly, the inhibition is the percentage by which the read-out fell short of the control.

Structures are written as SMILES. “And” between values parts separate entries of the source, which are not always exact repeats. Identical values can stand only once.

One experiment has as its system MCF-7 human breast cancer cell line. The experiment is described as follows: Alamar Blue assay for antiproliferative effects. It counts as cell-based. As to conditions: Homo sapiens, MCF7, 72 h, MCF-7, 72 h, Alamar Blue; read-out: IC50 (μM), antiproliferative effects. In general terms: Alamar Blue is a resazurin reagent that responds to reducing activity.
As to `CCC(=C(c1ccc(O)cc1)c1ccc(OCCN(C)C(=O)/C(=C/c2ccc(OC)c(O)c2)c2cc(OC)cc(OC)c2)cc1)c1ccccc1` (mixture of isomers) [Compound 3d, (E/Z)-2-(3,5-Dimethoxyphenyl)-3-(3-hydroxy-4-methoxyphenyl)-N-(2-(4-((Z)-1-(4-hydroxyphenyl)-2-phenylbut-1-en-1-yl)phenoxy)ethyl)-N-methylacrylamide], the half-inhibitory concentration (IC50) was above 50 µM.

On to `CCC(=C(c1ccc(O)cc1)c1ccc(OCCN(C)C(=O)/C(=C/c2cccc(O)c2)c2cc(OC)c(OC)c(OC)c2)cc1)c1ccccc1` (mixture of isomers) [Compound 3f, (E/Z)-3-(3-Hydroxyphenyl)-N-(2-(4-((Z)-1-(4-hydroxyphenyl)-2-phenylbut-1-en-1-yl)phenoxy)ethyl)-N-methyl-2-(3,4,5-trimethoxyphenyl)acrylamide], for which the IC50 was above 50 µM.

For `CCC(=C(c1ccc(O)cc1)c1ccc(OCCN(C)C(=O)/C=C/c2cc(OC)c(OC)c(OC)c2)cc1)c1ccccc1` (mixture of isomers) [Compound 5c, (E/Z)-N-(2-(4-((Z)-1-(4-Hydroxyphenyl)-2-phenylbut-1-en-1-yl)phenoxy)ethyl)-N-methyl-3-(3,4,5-tri-methoxyphenyl)acrylamide], the IC50 is above 100 µM.

For the compound `CCC(=C(c1ccc(O)cc1)c1ccc(OCCN(C)C(=O)CCc2cc(OC)c(OC)c(OC)c2)cc1)c1ccccc1` (mixture of isomers) [Compound 5d, N-(2-(4-((E/Z)-1-(4-Hydroxyphenyl)-2-phenylbut-1-enyl)phenoxy)ethyl)-3-(3,4,5-trimethoxyphenyl)-N-methylpropanamide], the IC50 is above 100 µM.

In the case of `CCC(=C(c1ccc(O)cc1)c1ccc(OCCN(C)C(=O)/C(=C/c2ccc(OC)c(OC)c2)c2cc(OC)c(OC)c(OC)c2)cc1)c1ccccc1` (mixture of isomers) [Compound 3g, (E/Z)-3-(3,4-Dimethoxyphenyl)-N-(2-(4-((Z)-1-(4-hydroxyphenyl)-2-phenylbut-1-en-1-yl)phenoxy)ethyl)-N-methyl-2-(3,4,5-trimethoxyphenyl)acrylamide], the IC50 is above 50 µM.

Take `CCC(=C(c1ccc(O)cc1)c1ccc(OCCN(C)C(=O)/C(=C/c2ccc(OC)c(OC)c2OC)c2cc(OC)c(OC)c(OC)c2)cc1)c1ccccc1` (mixture of isomers) [Compound 3h, (E/Z)-N-(2-(4-((Z)-1-(4-Hydroxyphenyl)-2-phenylbut-1-en-1-yl)phenoxy)ethyl)-N-methyl-3-(2,3,4-tri-methoxyphenyl)-2-(3,4,5-trimethoxyphenyl)acrylamide]: the IC50 is above 50 µM.

For the compound `CNCCOc1ccc(C(=C2CCCC2)c2ccc(O)cc2)cc1` [Compound 11a, 4-(Cyclopentylidene(4-(2-(methylamino)ethoxy)phenyl)methyl)phenol], the IC50 came out at 3.09 µM.

With `CNCCOc1ccc(C(=C2CCCCC2)c2ccc(O)cc2)cc1` [Compound 11b, 4-(Cyclohexaneylidene(4-(2-(methylamino)ethoxy)phenyl)methyl)phenol], the half-maximal inhibitory concentration (IC50) was found to be 4.78 µM.

Regarding `CCC(=C(c1ccc(O)cc1)c1ccc(OCCN(C)C(=O)/C(=C/c2cc(OC)c(OC)c(OC)c2)c2cc(OC)cc(OC)c2)cc1)c1ccccc1` (mixture of isomers) [Compound 3b, (E/Z)-2-(3,5-Dimethoxyphenyl)-N-(2-(4-((Z)-1-(4-hydroxyphenyl)-2-phenylbut-1-en-1-yl)phenoxy)ethyl)-N-methyl-3-(3,4,5-trimethoxyphenyl)acrylamide], the IC50 is above 50 µM.

Turning to `CCC(=C(c1ccc(O)cc1)c1ccc(OCCN(C)C(=O)/C(=C/c2ccc(C)s2)c2cc(OC)c(OC)c(OC)c2)cc1)c1ccccc1` (mixture of isomers) [Compound 3l, (E/Z)-N-(2-(4-((E)-1-(4-Hydroxyphenyl)-2-phenylbut-1-en-1-yl)phenoxy)ethyl)-N-methyl-3-(5-methyl-thiophen-2-yl)-2-(3,4,5-trimethoxyphenyl)acrylamide], the IC50 is above 50 µM.

With `CCC(=C(c1ccc(O)cc1)c1ccc(OCCN(C)C(=O)/C(=C/c2cc(OC)c(OC)c(OC)c2)c2cc(OC)c(OC)c(OC)c2)cc1)c1ccccc1` (mixture of isomers) [Compound 3c, (E/Z)-N-(2-(4-((Z)-1-(4-Hydroxyphenyl)-2-phenylbut-1-en-1-yl)phenoxy)ethyl)-N-methyl-2,3-bis(3,4,5-trimethoxyphenyl)acrylamide], the IC50 was above 50 µM.

Consider `COc1ccc(/C=C(/C(=O)N(C)CCOc2ccc(C(=C3CCCCC3)c3ccc(O)cc3)cc2)c2cc(OC)c(OC)c(OC)c2)cc1O` [Compound 13b, (E)-N-(2-(4-(Cyclohexaneylidene(4-hydroxyphenyl)methyl)phenoxy)ethyl)-3-(3-hydroxy-4-methoxyphenyl)-N-methyl-2-(3,4,5-trimethoxyphenyl)acrylamide], for which the IC50 is 2.01 µM.

The same experiment, now with this note: Homo sapiens, MCF7, 72 h, read-out: IC50 (μM), antiproliferative effects.
With `CCC(=C(c1ccc(O)cc1)c1ccc(OCCN(C)C(=O)/C(=C/c2ccc(OC)c([N+](=O)[O-])c2)c2cc(OC)c(OC)c(OC)c2)cc1)c1ccccc1` (mixture of isomers) [Compound 3a, (E/Z)-N-(2-(4-((E)-1-(4-Hydroxyphenyl)-2-phenylbut-1-en-1-yl)phenoxy)ethyl)-3-(4-methoxy-3-nitro-phenyl)-N-methyl-2-(3,4,5-trimethoxyphenyl)acrylamide], the IC50 is above 50 µM.

With `COc1ccc(/C=C(/C(=O)N(C)CCOc2ccc(C(=C3CCCC3)c3ccc(O)cc3)cc2)c2cc(OC)c(OC)c(OC)c2)cc1O` [Compound 13a, (E)-N-(2-(4-(Cyclopentylidene(4-hydroxyphenyl)methyl)phenoxy)ethyl)-3-(3-hydroxy-4-methoxyphenyl)-N-methyl-2-(3,4,5-trimethoxyphenyl)acrylamide], the IC50 worked out at 1.38 µM.

Staying with this experiment, now noted: Homo sapiens, MCF7, read-out: growth inhibition.
In the case of `CCN(CC)C(=O)/C(=C/c1ccc(OC)c(O)c1)c1cc(OC)c(OC)c(OC)c1` [Compound 3o, (E)-N,N-diethyl-3-(3-hydroxy-4-methoxyphenyl)-2-(3,4,5-trimethoxyphenyl) acrylamide], the inhibition at 1 µM came to 16%.

The same experiment, now with this note: Homo sapiens, MCF7; MCF-7, at 1 μM; read-out: growth inhibition.
Consider `CCN(CC)C(=O)/C(=C/c1ccc(OC)cc1)c1cc(OC)c(OC)c(OC)c1` [Compound 3q, (E)-N,N-Diethyl-3-(4-methoxyphenyl)-2-(3,4,5-trimethoxyphenyl)acrylamide], for which the inhibition at 1 µM amounted to 25%.

Regarding `COc1ccc(/C=C(/C(N)=O)c2cc(OC)c(OC)c(OC)c2)cc1` [Compound 3p, (E)-3-(4-Methoxyphenyl)-2-(3,4,5-trimethoxyphenyl)acrylamide], the inhibition at 1 µM amounted to 60%.

The experiment is the same for the next values; noted with them: MCF-7, 72 h, Alamar Blue; read-out: IC50 (μM), antiproliferative effects.
Turning to `CCC(=C(c1ccc(O)cc1)c1ccc(OCCN(C)C(=O)/C=C/c2cc(OC)c(OC)c(OC)c2)cc1)c1ccccc1` (mixture of isomers) [Compound 5c, (E/Z)-N-(2-(4-((Z)-1-(4-Hydroxyphenyl)-2-phenylbut-1-en-1-yl)phenoxy)ethyl)-N-methyl-3-(3,4,5-tri-methoxyphenyl)acrylamide], the IC50 was above 50 µM.

As for `CCC(=C(c1ccc(O)cc1)c1ccc(OCCN(C)C(=O)CCc2cc(OC)c(OC)c(OC)c2)cc1)c1ccccc1` (mixture of isomers) [Compound 5d, N-(2-(4-((E/Z)-1-(4-Hydroxyphenyl)-2-phenylbut-1-enyl)phenoxy)ethyl)-3-(3,4,5-trimethoxyphenyl)-N-methylpropanamide], the IC50 is above 50 µM.

In the case of `CC/C(=C(\c1ccc(O)cc1)c1ccc(OCCN(C)C(=O)C=Cc2ccc(OC)c(O)c2)cc1)c1ccccc1` (mixture of isomers) [Compound 5a, (E/Z)-3-(3-Hydroxy-4-methoxyphenyl)-N-(2-(4-((Z)-1-(4-hydroxyphenyl)-2-phenylbut-1-en-1-yl)phenoxy)-ethyl)-N-methylacrylamide], the IC50 came to 51.3 µM.

Regarding `CCC(=C(c1ccc(O)cc1)c1ccc(OCCN(C)C(=O)CCc2ccc(OC)c(O)c2)cc1)c1ccccc1` (mixture of isomers) [Compound 5b, (E/Z)-3-(3-hydroxy-4-methoxyphenyl)-N-(2-(4-(1-(4-hydroxyphenyl)-2-phenylbut-1-en-1-yl)phenoxy)ethyl)-N-methylpropanamide], the IC50 was 46.7 µM and 46.8 µM.

(Values after PMC6151695, “Novel Selective Estrogen Receptor Ligand Conjugates Incorporating Endoxifen-Combretastatin and Cyclofenil-Combretastatin Hybrid Scaffolds: Synthesis and Biochemical Evaluation” (Molecules : A Journal of Synthetic Chemistry and Natural …, 2017).)
